In ChEMBL document CHEMBL3885881, “DrugMatrix”:

Species: Rattus norvegicus
Assay: DrugMatrix - Regimen: Daily Repeat
Type: toxicity, organism-based, Sprague-Dawley
Design: regimen Daily Repeat, gender Male, age 6-8 weeks
Conditions: in vivo, iv, vehicle 100 % SALINE; for ABSOLUTE BASOPHIL / ABSOLUTE EOSINOPHIL / ABSOLUTE LYMPHOCYTE / ABSOLUTE MONOCYTE / ABSOLUTE SEGMENTED NEUTROPHIL / BASOPHIL / EOSINOPHIL / ERYTHROCYTE COUNT / HEMATOCRIT / HEMOGLOBIN / LEUKOCYTE COUNT / LYMPHOCYTE / MEAN CORPUSCULAR HEMOGLOBIN / MEAN CORPUSCULAR HEMOGLOBIN CONCENTRATION / MEAN CORPUSCULAR VOLUME / MONOCYTE / NEUTROPHIL / NUCLEATED RED BLOOD CELLS / PLATELET COUNT: tissue Blood; for ALANINE AMINOTRANSFERASE / ALBUMIN / ALKALINE PHOSPHATASE / ASPARTATE AMINOTRANSFERASE / BLOOD UREA NITROGEN / CARBON DIOXIDE / CHLORIDE / CHOLESTEROL / CREATINE PHOSPHOKINASE / CREATININE / GLUCOSE / LACTATE DEHYDROGENASE / LIPASE / PHOSPHORUS / POTASSIUM / SODIUM / TOTAL BILIRUBIN / TOTAL PROTEIN / URIC ACID: tissue Plasma
[1] = 0 mg/kg, 72 h, dose level Control, time 3 day
[2] = 0 mg/kg, 120 h, dose level Control, time 5 day
[3] = 7 mg/kg, 72 h, dose level Low, time 3 day

`CC(=O)N[C@@H]1[C@H](Oc2c3cc4cc2Oc2ccc(cc2Cl)[C@@H](O[C@@H]2O[C@@H](CO)[C@@H](O)[C@H](O)[C@@H]2NC(C)=O)[C@@H]2NC(=O)[C@H](NC(=O)[C@@H]4NC(=O)[C@H]4NC(=O)[C@@H](Cc5ccc(c(Cl)c5)O3)NC(=O)[C@H](N)c3ccc(O)c(c3)Oc3cc(O)cc4c3)c3ccc(O)c(c3)-c3c(O[C@H]4O[C@H](CO)[C@@H](O)[C@@H](O)[C@@H]4O)cc(O)cc3[C@@H](C(=O)O)NC2=O)O[C@@H](CO)[C@@H](O)[C@@H]1O` was tested, and the “ABSOLUTE BASOPHIL” value [1] was 0 CELLS/uL, the “ABSOLUTE EOSINOPHIL” value [1] was 193.5 CELLS/uL and the “ABSOLUTE LYMPHOCYTE” value [1] was 15717.5 CELLS/uL. The “ABSOLUTE MONOCYTE” value [1] was 389.33 CELLS/uL, the “ABSOLUTE SEGMENTED NEUTROPHIL” value [1] was 1883 CELLS/uL and the BASOPHIL [1] was 0%. The EOSINOPHIL [1] was 1.17%, the “ERYTHROCYTE COUNT” value [1] was 5.68 x10E6/uL and the HEMATOCRIT [1] was 35.83%. The HEMOGLOBIN [1] was 13.48 G/DL, the “LEUKOCYTE COUNT” value [1] was 18.18 x10E3/uL and the LYMPHOCYTE [1] was 86.67%. For the same molecule, the “MEAN CORPUSCULAR HEMOGLOBIN” value [1] was 23.8 pg, the “MEAN CORPUSCULAR HEMOGLOBIN CONCENTRATION” value [1] was 37.68 G/DL and the “MEAN CORPUSCULAR VOLUME” value [1] was 63.27 fL. For the same molecule, the MONOCYTE [1] was 2.17%, the NEUTROPHIL [1] was 10% and the “NUCLEATED RED BLOOD CELLS” value [1] was 0 /100WBC. The “PLATELET COUNT” value [1] was 1186.33 x10E3/uL, the “ALANINE AMINOTRANSFERASE” value [1] was 68.5 u/L and the ALBUMIN [1] was 4.37 G/DL. For the same molecule, the “ALKALINE PHOSPHATASE” value [1] was 396.33 u/L, the “ASPARTATE AMINOTRANSFERASE” value [1] was 92.5 u/L and the “BLOOD UREA NITROGEN” value [1] was 18 mg/dL. The “CARBON DIOXIDE” value [1] was 24.33 mmol/L, the CHLORIDE [1] was 102.4 MEQ/L and the CHOLESTEROL [1] was 67.17 mg/dL. For the same molecule, the “CREATINE PHOSPHOKINASE” value [1] was 378.67 u/L, the CREATININE [1] was 0.19 mg/dL and the GLUCOSE [1] was 178.33 mg/dL. For the same molecule, the “LACTATE DEHYDROGENASE” value [1] was 245.17 u/L, the LIPASE [1] was 9.2 u/L and the PHOSPHORUS [1] was 12.37 mg/dL. For the same molecule, the POTASSIUM [1] was 6.48 MEQ/L, the SODIUM [1] was 143.28 MEQ/L and the “TOTAL BILIRUBIN” value [1] was 0.23 mg/dL. The “TOTAL PROTEIN” value [1] was 5.65 G/DL, the “URIC ACID” value [1] was 1.6 mg/dL and the “ABSOLUTE BASOPHIL” value [2] was 0 CELLS/uL. For the same molecule, the “ABSOLUTE EOSINOPHIL” value [2] was 27.5 CELLS/uL, the “ABSOLUTE LYMPHOCYTE” value [2] was 13593.17 CELLS/uL and the “ABSOLUTE MONOCYTE” value [2] was 576 CELLS/uL. For the same molecule, the “ABSOLUTE SEGMENTED NEUTROPHIL” value [2] was 1836.67 CELLS/uL, the BASOPHIL [2] was 0% and the EOSINOPHIL [2] was 0.17%. The “ERYTHROCYTE COUNT” value [2] was 5.99 x10E6/uL, the HEMATOCRIT [2] was 37.42% and the HEMOGLOBIN [2] was 13.78 G/DL. The “LEUKOCYTE COUNT” value [2] was 16.03 x10E3/uL, the LYMPHOCYTE [2] was 85.17% and the “MEAN CORPUSCULAR HEMOGLOBIN” value [2] was 23.08 pg. For the same molecule, the “MEAN CORPUSCULAR HEMOGLOBIN CONCENTRATION” value [2] was 36.83 G/DL, the “MEAN CORPUSCULAR VOLUME” value [2] was 62.6 fL and the MONOCYTE [2] was 3.5%. For the same molecule, the NEUTROPHIL [2] was 11.17%, the “NUCLEATED RED BLOOD CELLS” value [2] was 0 /100WBC and the “PLATELET COUNT” value [2] was 1352.5 x10E3/uL. The “ALANINE AMINOTRANSFERASE” value [2] was 49.83 u/L, the ALBUMIN [2] was 4.25 G/DL and the “ALKALINE PHOSPHATASE” value [2] was 331.33 u/L. For the same molecule, the “ASPARTATE AMINOTRANSFERASE” value [2] was 86.17 u/L, the “BLOOD UREA NITROGEN” value [2] was 19.5 mg/dL and the “CARBON DIOXIDE” value [2] was 26.67 mmol/L. The CHLORIDE [2] was 103 MEQ/L, the CHOLESTEROL [2] was 67.5 mg/dL and the “CREATINE PHOSPHOKINASE” value [2] was 346.17 u/L. The CREATININE [2] was 0.22 mg/dL, the GLUCOSE [2] was 170.67 mg/dL and the “LACTATE DEHYDROGENASE” value [2] was 405.5 u/L. For the same molecule, the LIPASE [2] was 8.83 u/L, the PHOSPHORUS [2] was 11.3 mg/dL and the POTASSIUM [2] was 6.06 MEQ/L. For the same molecule, the SODIUM [2] was 143.4 MEQ/L, the “TOTAL BILIRUBIN” value [2] was 0.17 mg/dL and the “TOTAL PROTEIN” value [2] was 6.22 G/DL. The “URIC ACID” value [2] was 1.63 mg/dL, the “ABSOLUTE BASOPHIL” value [3] was 0 CELLS/uL and the “ABSOLUTE EOSINOPHIL” value [3] was 340.67 CELLS/uL. For the same molecule, the “ABSOLUTE LYMPHOCYTE” value [3] was 16096 CELLS/uL, the “ABSOLUTE MONOCYTE” value [3] was 460.67 CELLS/uL and the “ABSOLUTE SEGMENTED NEUTROPHIL” value [3] was 1602.67 CELLS/uL. The BASOPHIL [3] was 0%, the EOSINOPHIL [3] was 1.67% and the “ERYTHROCYTE COUNT” value [3] was 5.86 x10E6/uL. The HEMATOCRIT [3] was 37.6%, the HEMOGLOBIN [3] was 14.23 G/DL and the “LEUKOCYTE COUNT” value [3] was 18.5 x10E3/uL. For the same molecule, the LYMPHOCYTE [3] was 87%, the “MEAN CORPUSCULAR HEMOGLOBIN” value [3] was 24.27 pg and the “MEAN CORPUSCULAR HEMOGLOBIN CONCENTRATION” value [3] was 37.87 G/DL. The “MEAN CORPUSCULAR VOLUME” value [3] was 64.13 fL, the MONOCYTE [3] was 2.67% and the NEUTROPHIL [3] was 8.67%. The “NUCLEATED RED BLOOD CELLS” value [3] was 0 /100WBC, the “PLATELET COUNT” value [3] was 1212.33 x10E3/uL and the “ALANINE AMINOTRANSFERASE” value [3] was 48 u/L. The ALBUMIN [3] was 5.03 G/DL, the “ALKALINE PHOSPHATASE” value [3] was 341.33 u/L and the “ASPARTATE AMINOTRANSFERASE” value [3] was 90.67 u/L. The “BLOOD UREA NITROGEN” value [3] was 21.33 mg/dL, the “CARBON DIOXIDE” value [3] was 21.67 mmol/L and the CHLORIDE [3] was 98.33 MEQ/L. The CHOLESTEROL [3] was 73.33 mg/dL, the “CREATINE PHOSPHOKINASE” value [3] was 336 u/L and the CREATININE [3] was 0.27 mg/dL. The GLUCOSE [3] was 149 mg/dL, the “LACTATE DEHYDROGENASE” value [3] was 410.67 u/L and the LIPASE [3] was 10 u/L. The PHOSPHORUS [3] was 11.57 mg/dL, the POTASSIUM [3] was 7.21 MEQ/L and the SODIUM [3] was 141.2 MEQ/L. The “TOTAL BILIRUBIN” value [3] was 0.27 mg/dL, the “TOTAL PROTEIN” value [3] was 6.07 G/DL and the “URIC ACID” value [3] was 2.23 mg/dL.
